{"source": "patent US20130209366A1", "about": "“Glutathione-Lanthionine Compounds and Methods Related Thereto” (OKLAHOMA MEDICAL RESEARCH FOUNDATION, priority 2010, published 2013)", "key": {"syntaptosomal membranes": {"target": "syntaptosomal membranes", "conditions": "cited from earlier work"}, "HT-4 neurons": {"test_system": "HT-4 neurons", "conditions": "cited from earlier work"}, "[1]": {"test_system": "TNFα or LPS-treated microglia and macrophages", "conditions": "cited from earlier work"}, "[2]": {"test_system": "NSC-34 motor neuron-like cells", "conditions": "NSC-34 cells; cited from earlier work"}, "NSC-34 cells": {"test_system": "NSC-34 cells", "conditions": "cited from earlier work"}, "SOD1G93A mutant mice": {"test_system": "SOD1G93A mutant mice", "experiment": "Onset of paralysis and survival in SOD1G93A mouse model of familial ALS", "format": "in vivo", "conditions": "for age at death (d) mean / onset of paralysis (d) mean: 5 days/week from 90d", "experimental": "Additional studies to explore effects of LKE in vivo, as a pharmacological candidate were conducted in a murine model for the motoneuron disease amyotrophic lateral sclerosis (ALS). In a first effort to assess LKE effects against a model of spontaneous neurodegeneration, SOD1G93A mutant mice modeling familial ALS [27-28] were treated with intraperitoneal (i.p.) injections of 100 mg/kg/d LKE in saline vehicle, from 90d throughout the remaining mouse lifespan. LKE is relevant to test in this mouse because the SOD1G93A mouse experiences robust neuroinflammation concomitant with TNFα-driven microglial activation, oxidative stress, and significant progressive distal axonopathy, all of which might be expected to be mitigated by LKE based on the ester's observed effects in cell culture. Mouse motor function was assessed as previously described using a standard rotarod test, at sequential 10d intervals (FIG. 6). Specific groups of mice were treated with LKE in saline or saline vehicle only. […] Overall survival was increased by LKE based on logrank analysis (Table I).\n(§1) Mice were injected with synthetic gLan in saline at 50-200 mg/kg/d, five days per week (Monday-Friday) beginning at 90d of age. Mice were assessed at baseline and every 10d for motor functional ability using the rotarod task as described previously.\nMotor function dropped off rapidly amongst all groups at ages >110 d (FIG. 8). As in the case of LKE treatment, chronic intraperitoneal gLan at 100-200 mg/kg/dose tended to increase the age at which onset-of-paralysis was observed (based on a leg-clinch test) and the mean age of death of the SOD1G93A mice (Table II). When motor performance curves were interpolated to estimate the age at which mice lost an average 50% of baseline motor function, the 100 mg/kg/dose gLan treatment group reached this clinical endpoint approximately 18d later than the vehicle-treated group (FIG. 8)."}, "SOD1G93A mice": {"test_system": "SOD1G93A mice", "experiment": "Rotarod motor function in SOD1G93A mice", "format": "in vivo, mouse", "experimental": "FIG. 8. […] Mice were treated with daily intraperitoneal injections of gLan, at the indicated dose, 5 days/week beginning at 90 d, and motor performance was evaluated by rotarod task as described in the examples.\nAdditional studies to explore effects of LKE in vivo, as a pharmacological candidate were conducted in a murine model for the motoneuron disease amyotrophic lateral sclerosis (ALS). In a first effort to assess LKE effects against a model of spontaneous neurodegeneration, SOD1G93A mutant mice modeling familial ALS [27-28] were treated with intraperitoneal (i.p.) injections of 100 mg/kg/d LKE in saline vehicle, from 90d throughout the remaining mouse lifespan. LKE is relevant to test in this mouse because the SOD1G93A mouse experiences robust neuroinflammation concomitant with TNFα-driven microglial activation, oxidative stress, and significant progressive distal axonopathy, all of which might be expected to be mitigated by LKE based on the ester's observed effects in cell culture. Mouse motor function was assessed as previously described using a standard rotarod test, at sequential 10d intervals (FIG. 6). Specific groups of mice were treated with LKE in saline or saline vehicle only.\nas §1"}, "[3]": {"test_system": "primary dissociated chick dorsal root ganglia (DRG) cultures", "experiment": "Neurite length in primary dissociated chick dorsal root ganglia cultures", "format": "cell-based", "conditions": "100 μM, treated at 2-3 DIV, 24 h", "experimental": "FIG. 5. LK-5-ethyl ester (LKE) promotes neurite extension in primary, dissociated chick dorsal root ganglia cell cultures. Neurons were treated with LKE or saline vehicle for 24 h from DIV2-3 and quantitatively assessed for neurite morphometry as described in the text.\nCell culture studies were performed to assess LKE effects on neuritigenesis in primary dissociated chick dorsal root ganglia (DRG) cultures prepared essentially as described by Margiotta and Howard. Cultures were treated with LKE at 2-3 days in vitro (DIV), and neuron morphometry was quantified from bright field micrographs by a blinded observer using Metamorph® software (Molecular Devices, Sunnyvale Calif. USA)."}, "[4]": {"conditions": "100 mg/kg/d i.p. in saline from 90d, N = 15"}}, "note": "Marks after values point to notes of the source that are not given here.", "data": [{"smiles": "O=C(O)C1=NC(C(=O)O)CSC1", "note": "(centres unmarked) [LK, 2H-1,4-thiazine-5,6-dihydro-3,5-dicarboxylic acid]", "values": [{"measurement": "Kd", "setting": "syntaptosomal membranes; saturable, reversible with cold LK, read-out: Kd of [35S]LK binding to synaptosomal membranes", "result": 58, "unit": "nM"}, {"measurement": "protection against toxicity of high-dose glutamate", "setting": "HT-4 neurons", "result": "protected"}, {"measurement": "nitric oxide synthesis", "setting": "[1]", "result": "suppressed"}]}, {"smiles": "CCOC(=O)C1CSCC(C(=O)O)=N1", "note": "(centres unmarked) [LKE, LK-5-ethyl ester]", "values": [{"measurement": "protection from toxicity of hydrogen peroxide (H2O2)", "setting": "[2]", "result": "protected"}, {"measurement": "protection from toxicity of microglia-conditioned medium", "setting": "[2]", "result": "protected"}, {"measurement": "growth factor-stimulated outgrowth of neurites", "setting": "NSC-34 cells", "result": "promoted"}, {"measurement": "protection against toxicity of high-dose glutamate", "setting": "HT-4 neurons", "result": "protected"}, {"measurement": "nitric oxide synthesis", "setting": "[1]", "result": "suppressed"}, {"measurement": "overall survival", "setting": "SOD1G93A mutant mice; 100 mg/kg/d i.p. from 90d, logrank analysis", "result": "increased"}, {"measurement": "maximum age at death", "setting": "SOD1G93A mutant mice; [4]", "result": 152, "unit": "days"}, {"measurement": "median age at death (d)", "setting": "SOD1G93A mutant mice; [4]", "result": "139† d"}, {"measurement": "minimum age at death", "setting": "SOD1G93A mutant mice; [4]", "result": 124, "unit": "days"}, {"measurement": "age of frank paralysis", "setting": "SOD1G93A mutant mice; 100 mg/kg/d i.p. in saline from 90d, mean ± SEM, N = 15", "result": "121.6 ± 2.5", "unit": "days"}, {"measurement": "progression of clinical motoneuron disease", "setting": "SOD1G93A mice; 100 mg/kg/d i.p. from 90d, rotarod and leg-splay test", "result": "significantly slowed"}, {"measurement": "mean neurite length of dissociated DRG neurons", "setting": "[3]", "result": "significantly increased"}]}, {"smiles": "NC(CSC[C@H](NC(=O)CC[C@H](N)C(=O)O)C(=O)NCC(=O)O)C(=O)O", "note": "(some centres unmarked) [gLan, γGlu-Cys(S-Ala)-Gly]", "values": [{"measurement": "age at death (d) mean", "setting": "SOD1G93A mutant mice; gLan 50 mg/kg daily i.p.", "result": 126.7, "unit": "days"}, {"measurement": "onset of paralysis (d) mean", "setting": "SOD1G93A mutant mice; gLan 50 mg/kg daily i.p.", "result": 111.6, "unit": "days"}, {"measurement": "age at death (d) mean", "setting": "SOD1G93A mutant mice; gLan 100 mg/kg daily i.p.", "result": 138.3, "unit": "days"}, {"measurement": "onset of paralysis (d) mean", "setting": "SOD1G93A mutant mice; gLan 100 mg/kg daily i.p.", "result": 123.8, "unit": "days"}, {"measurement": "age at death (d) mean", "setting": "SOD1G93A mutant mice; gLan 200 mg/kg daily i.p.", "result": 133.1, "unit": "days"}, {"measurement": "onset of paralysis (d) mean", "setting": "SOD1G93A mutant mice; gLan 200 mg/kg daily i.p.", "result": 116.7, "unit": "days"}, {"measurement": "delay versus vehicle of the age at which mice lost an average 50% of baseline motor function", "setting": "SOD1G93A mice; 100 mg/kg/dose, interpolated from motor performance curves", "result": "approximately 18 d"}, {"measurement": "motor function (rotarod)", "setting": "SOD1G93A mice; 50-200 mg/kg/d, up to 110d or 120d, 100 mg/kg optimum, p<0.01 repeated measures ANOVA", "result": "dose-dependently improved"}, {"measurement": "average rotarod performance at 100d and 110d versus 90d baseline", "setting": "SOD1G93A mice; 100-200 mg/kg/d", "result": "improved above the 90d baseline value"}, {"measurement": "motor function relative to saline treated control animals", "setting": "SOD1G93A mice; 100-200 mg/kg/d, ages <120d", "result": "twice"}]}, {"smiles": "O=C(O)C1CSCC(C(=O)O)N1", "note": "(centres unmarked) [reduced LK, thiomorpholine dicarboxylic acid]", "values": [{"measurement": "displacement of [35S]LK", "setting": "syntaptosomal membranes", "result": "could not displace"}]}]}
